In patent US6428816B1, “Carotenoid agent for inhibiting the conversion of epithelial cells to tumors” (Cognis Australia Pty., Ltd., priority 1992, dated 2002):
“Also recorded” adds a separate entry of the source.

Legend:
c-jun = assay: Northern analysis of c-jun RNA in melanocytes exposed to UV-B; type: cell-based, human; conditions: for decrease of C-jun induction versus irradiated melanocytes in complete medium (TPA and IBMX) / RNA levels in the absence of the factor: FIG. 9; for decrease of C-jun induction versus irradiated melanocytes in complete medium (TPA and IBMX): medium without the factor (TPA 10 ng/ml or IBMX 0.1 mM) 24 hours, 100 mJ/cm^2 UVB, 1 hour after irradiation; for RNA levels in the absence of the factor: melanocytes not exposed to UVB
Text: Ultra-violet (“UV”) radiation can cause severe damage to cells, including genetic mutations, the promotion of cancer, and other adverse conditions. The potentially harmful effects for UV radiation for humans are mainly due to the UVB spectrum (ie, radiation having a wavelength of between 290 and 320 nanometers) (See: […], Soler N A Staff J S and Mihm M C Jr: “The human sunburn reaction: histologic and biochemical studies” J, Am. […] Another form of UV radiation is called “UVC”. UVC radiation in sunlight typically has a wavelength of the order of 254 nanometers. It is not as biologically relevant as UVB radiation however, because th UVC radiation in sunlight is strongly absorbed by the earth's ozone layer. accordingly, in the present study, we investigated the effects of UVB irradiation by melanocytes, and the changes to those effects by treating those cells with carotenoids. UVC wavelengths were blocked out of the experiments as the cells were incubated in plastic vessels. […] Wavelengths shorter than 280 nm wee cut off by keeping lids on tissue culture dishes. […] Total RNA was isolated by detergent lysis followed by phenol-chloroform extraction and ethanol precipitation. 15 micrograms of RNA was size-fractionated on denaturing formaldehyde/agarose gels and transferred to nylon filters by capillary blotting. […] After hybridization, filters were washed to a stringency of 0.5-0.1X SSC at 60° C. and autoradiographed at -80° C. for three to ten days using Fuji film. Autoradiographs are quantitated by densitometry using the GS-365 software (Hoefer Scientific). […] The c-fos probe was a 1.8 kb Xbo 1/Eco R I fragment from the plasmid BK 28 (Verma, 1988). The 185 probe was isolated by an EcoRI digest and isolation of the 5.6 kb fragment from the plasmid pB (Gonzalez, 1988). […] The 0.05 hour time indicates cells were harvested within 3 minutes following UV-B exposure. A “control” group received precisely the same treatment as the “treated” group, with the exception of being treated with beta-carotene.

NF Kappa B = assay: Gel mobility shift assay of NF Kappa B DNA binding activity in nuclear extracts of UV-B irradiated melanocytes; type: cell-based, human
Protocol: In summary, gel mobility shift assay using a NF Kappa B consensus sequence was performed to determine DNA binding activity of nuclear extracts from four normal Caucasian melanocyte (NCM) lines.
Cells were grown to approximately 50-60% confluency and treated as described in the experimental protocol described in section (i) below. The cells were allowed to swell in hypotonic buffer (10 mM HEPES, pH 7.8, 0.1 mM EDTA, 10 mM KCC, 1 mM DTT. PMSF for 15 minutes on ice). Cytosolic protein fraction was obtained after the addition of Nonider P-40 to a final concentration of 0.5% and separation from the nuclei by centrifugation (500×g. for 5 minutes). Nuclear proteins were extracted from the remaining pellet by dialysis with hypertonic buffer ([…], pH 7.9, 350 mM NaCl, 1 Mm DTT, 1 mM PMSF) for 2 hours at 10° C. Isolated nuclear protein was frozen and stored at −80° C. Quantitation was calculated from optical density readings of 230, 260 and 320 wavelengths.
Five microgram samples of each extract were incubated with 10,000 cpm of a ^32p-labelled consensus oligonucleotide of NF Kappa B. Following a 1 hour incubation, samples were electrophoresed in a low ionic strength polyacrylamide gel. Quantitation of protein; DNA complexes was accomplished by densitometry.
(§1) Normal human melanocytes were seeded into the appropriate vessel (6 well plate, 96 well plate, 75 cm or 175 cm flask) and allowed to grow to 50-60% confluency. […] The 0.05 hour time indicates cells were harvested within 3 minutes following UV-B exposure.

c-fos = assay: Northern analysis of c-fos RNA in melanocytes exposed to UV-B; type: cell-based, human
Protocol: as §1

normal human melanocytes [1] = assay: DNA synthesis by tritiated thymidine incorporation in normal human melanocytes; type: cell-based; conditions: for effect on DNA synthesis (percent tritiated thymidine incorporation): no UV
Protocol: FIGS. 1 and 5 refer to “Percent Tritiated Thymidine Incorporation” which is a measure of DNA synthesis activity.
(§2) Human neonatal foreskins were placed in 0.25% trypsin at 4° C. overnight. Following this incubation, the tissue was scraped to recover the melanocytes. The melanocytes were cultured in MCDB 151 (Sigma) medium containing 2% fetal calf serum, 0.3% bovine pituitary extract (Clonetics Corp.), 10 nanograms/ml TPA, 2 mM CaCl2, 5 micrograms/ml insulin and 0.1 mM IBMX (Sigma).
(§3) Cells were harvested with 0.25% trypsin and counted on a Coulter Counter (Coulter Instruments). Viability was determined by trypan blue exclusion. DNA synthesis was measured by labelling with (methyl-^3H)-thymidine (2.5 mCi/ml, 20 Ci/mmol, DuPont-New England Nuclear) added to the medium during the last 4 hours of incubation. Melanocytes were harvested using a Ph.D. cell harvester (Cambridge Research Inc.). the amount of radioactivity incorporated was determined by liquid scintillation counting (LS5000TD. Beckman Instruments).
as §1

normal human melanocytes [2] = conditions: FIG. 2; 500 mJ/cm^2 UV-B; up to 24 hours after irradiation
Protocol: as §2, §3, §1

[3] = FIG. 6, 1 ug/ml for 24 hours, then 100 or 500 mJ/cm^2 UV-B, four melanocyte lines

Row | SMILES | decrease of C-jun induction versus irradiated melanocytes in complete medium (TPA and IBMX) (c-jun) | RNA levels in the absence of the factor (c-jun) | effect on induction of c-jun by UV-B (c-jun; FIG. 3, 24 hours following 500 mJ/cm^2 UV-B irradiation) | increase of c-jun expression by beta-carotene (c-jun; FIG. 3, four hours following 500 mJ/cm^2 UV-B irradiation) | effect on UVB-induced C-jun expression (c-jun; [3]) | effect on NF kappa B DNA binding activity (NF Kappa B; FIG. 7, 100 mJ/cm^2 UV-B) | inhibition at 1 µg/mL (NF Kappa B; Homo sapiens, Melanocyte, light or radiation study, FIG. 8, 500 mJ/cm^2 UV-B, first hour following irradiation, 1.0 ug/ml pre-treatment 24 hours) | protective effect of pre-treatment (NF Kappa B complex) (NF Kappa B; one hour following UVB irradiation at 500 mJ/cm^2, p value less than 0.05, Student's t-test) | effect on induction of c-fos by UV-B (c-fos; FIG. 3, 500 mJ/cm^2 UV-B, beta-carotene pre-treatment) | effect on UVB-induced C-fos expression (c-fos; [3]) | effect on DNA synthesis (percent tritiated thymidine incorporation) (normal human melanocytes [1]; FIG. 1, highest beta-carotene dose, 24 hours incubation) | effect on DNA synthesis (percent tritiated thymidine incorporation) (normal human melanocytes [1]; FIG. 1, lower beta-carotene doses, 24 hours incubation) | effect on DNA synthesis at the chosen pre-treatment dose (normal human melanocytes [1]; FIG. 1, pre-treatment dose, 1.0 microgram/ml or 10 μg/ml, 24 hours incubation) | effect of pre-treatment on DNA synthesis after UV-B (normal human melanocytes [1]; FIG. 4, 4 hours after irradiation, 400 mJ/cm^2 of UV-B) | effect of pre-treatment on DNA synthesis (tritiated thymidine incorporation) after UV-B (normal human melanocytes [1]; FIG. 4, 24 hours following 400 mJ/cm^2 of UV-B) | persistence of the viability increase over the time course (normal human melanocytes [2])
1 | CC(C)Cn1c(=O)n(C)c(=O)c2[nH]cnc21 [IBMX, 3-Isobutyl 1-Methyl Xanthine] | approximately 50% | unaffected | – | – | – | – | – | – | – | – | – | – | – | – | – | –
2 | CCCCCCCCCCCCCC(=O)O[C@@H]1[C@@H](C)[C@@]2(O)[C@@H](C=C(CO)C[C@]3(O)C(=O)C(C)=C[C@@H]23)[C@H]2C(C)(C)[C@]12OC(C)=O [TPA, O-Tetradecanoylphorbol 13-acetate] | approximately 50% | unaffected | – | – | – | – | – | – | – | – | – | – | – | – | – | –
3 | CC1=C(/C=C/C(C)=C/C=C/C(C)=C/C=C/C=C(C)/C=C/C=C(C)/C=C/C2=C(C)CCCC2(C)C)C(C)(C)CCC1 [beta-carotene] | – | – | completely blocked | 11.1 fold | only a slight effect | slightly decreased; also recorded: moderate effect | > 50% | statistically significant protective effect | essentially blocked | did not alter | largely inhibited | little or no effect | minimal effect | not seen | increased | remained for the duration of the time course
